This note sets out measurements from PMC2759517 (PLoS ONE, 2009).

Where no end group is shown, it is not given here.

T1 sequence (Q9QLI9 whole entry): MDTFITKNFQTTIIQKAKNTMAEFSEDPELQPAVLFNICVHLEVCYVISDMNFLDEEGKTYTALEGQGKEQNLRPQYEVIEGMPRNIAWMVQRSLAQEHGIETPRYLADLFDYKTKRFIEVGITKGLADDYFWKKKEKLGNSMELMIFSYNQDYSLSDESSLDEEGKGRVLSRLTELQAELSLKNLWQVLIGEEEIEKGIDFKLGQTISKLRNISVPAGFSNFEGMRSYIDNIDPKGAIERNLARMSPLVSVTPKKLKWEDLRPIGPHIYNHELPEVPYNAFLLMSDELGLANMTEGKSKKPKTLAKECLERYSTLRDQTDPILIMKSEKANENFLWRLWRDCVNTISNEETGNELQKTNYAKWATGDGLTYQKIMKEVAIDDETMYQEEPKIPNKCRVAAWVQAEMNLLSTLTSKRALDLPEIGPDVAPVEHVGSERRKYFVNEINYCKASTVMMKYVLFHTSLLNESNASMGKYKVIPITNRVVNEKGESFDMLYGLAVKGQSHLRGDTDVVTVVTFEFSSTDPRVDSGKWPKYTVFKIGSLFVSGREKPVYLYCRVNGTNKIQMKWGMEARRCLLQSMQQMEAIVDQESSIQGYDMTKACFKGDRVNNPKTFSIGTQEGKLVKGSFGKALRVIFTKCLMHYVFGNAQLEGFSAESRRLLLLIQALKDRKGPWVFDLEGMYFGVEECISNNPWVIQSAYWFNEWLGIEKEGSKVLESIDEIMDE

This assay concerns the target T1, HA-tagged PA of FluB (Influenza B virus, UniProt Q9QLI9).
T1 construct: upstream of the initiation codon and antisense primers with a deleted stop codon; made in house; host or cells: human 293T cells, transiently transfected; unpurified cell lysate
As to the kind of experiment: biochemical. Format: binding.
Compound MDVNPHLLFLKVPAQ-NH2 [PB11-15 AT6H] showed an IC50 of over 3000 nM.

In turn, MDVNPFLLFLKVPAQ-NH2 [PB11-15 AT6F] gave an IC50 of 750 nM.

For the compound MDVNPCLLFLKVPAQ-NH2 [PB11-15 AT6C], the half-maximal inhibitory concentration (IC50) was over 3000 nM.

Compound MDVNPYLLFLKVPAQ-NH2 [PB11-15 AT6Y] gave an IC50 of 107 nM.

The compound “MNINPTLLFLKVPIQ-NH2 [PB11-15 AD2N,V3I,L14I]” returned an IC50 of over 3000 nM.

For the compound MDVNPWLLFLKVPAQ-NH2 [PB11-15 AT6W], the IC50 is 628 nM.

As to MDVNPYFLFLKVPAQ-NH2 [PB11-15 AT6Y,L7F], the IC50 turned out to be 345 nM.

On to MDVNPTFLFLKVPAQ-NH2 [PB11-15 AL7F], for which the IC50 is over 3000 nM.

As for “MDVNPTLLFIDVPAQ-NH2 [PB11-15 AL10I,K11D]”, the IC50 was over 3000 nM.

`CC[C@H](C)[C@H](NC(=O)[C@H](CC(N)=O)NC(=O)[C@@H](N)CCSC)C(=O)N[C@@H](CC(N)=O)C(=O)N1CCC[C@H]1C(=O)N[C@H](C(=O)N[C@@H](CC(C)C)C(=O)N[C@@H](CC(C)C)C(=O)N[C@@H](Cc1ccccc1)C(=O)N[C@@H](CC(C)C)C(=O)N[C@@H](CCCCN)C(=O)N[C@H](C(=O)N1CCC[C@H]1C(=O)N[C@@H](C)C(=O)N[C@@H](CCC(N)=O)C(N)=O)C(C)C)[C@@H](C)O` [PB11-15 AD2N,V3I] showed an IC50 of over 3000 nM.
